Assay results: ChEMBL document CHEMBL4043105, “Design and synthesis of potent and orally active GPR4 antagonists with modulatory effects on nociception, inflammation, and angiogenesis” (Bioorg Med Chem, 2017)

Columns and labels:
Rattus norvegicus [1] = organism: Rattus norvegicus; settings: in vivo, po, 3 mg/kg
Rattus norvegicus [2] = organism: Rattus norvegicus; settings: in vivo, po, 3 mg/kg; remark: listed apart in the source
in vivo [3] = settings: Sprague-Dawley, rat, iv, 1 mg/kg
in vivo [4] = settings: Sprague-Dawley, rat, iv, 1 mg/kg; remark: listed apart in the source
in vivo [5] = settings: Sprague-Dawley, rat, po, 3 mg/kg

AUC/dose (Rattus norvegicus [1]): 2196 µg·min/mL
Cmax/dose (Rattus norvegicus [2]): 193 nM
clearance (in vivo [3]): 15 mL/min/kg
half-life (in vivo [4]): 5.6 h
bioavailability (in vivo [5]): 86%
Compound: CCc1nc2c(C)cc(C)nc2n1Cc1ccc(/C=C/CN2CCN(C(C)C)CC2)cc1
